Drawing on PubChem BioAssay (NCI), this text covers GI50 and TGI for 18 compounds.

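96-well plates; 48 h exposure; 5 concentrations. Endpoints by linear interpolation between flanking doses. Not reached: highest tested concentration assigned. Abbreviation: GI50, concentration required for 50% inhibition of growth. The concentration for full growth arrest is given as TGI.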

Test in all cases: NCI tumour cell line growth inhibition, 48 h
The test system of assay [1] is UACC-62 melanoma.
Assay [2] relates to KM12 colon.
For assay [3], the system named is 786-0 renal.
In assay [4] the test system is COLO 205 colon.
The subject of assay [5] is ACHN renal.
Assay [6] relates to HL-60(TB) leukemia.
The subject of assay [7] is OVCAR-4 ovarian.
The test system of assay [8] is SW-620 colon.
For assay [9], the system named is M14 melanoma.
The test system of assay [10] is HT29 colon.

`COC(=O)N[C@H]1CCc2cc(OC)c(OC)c(OC)c2-c2ccc(SC)c(=O)cc21`: the GI50 in assay [1], in assay [2], in assay [3], in [4], in assay [5] and in [6] was less than 0.01 µM each time. For the same compound, the GI50 in assay [7] is 0.0205 µM; in assay [8] it was less than 0.01 µM; in assay [9] it was less than 0.01 µM; in assay [10], less than 0.01 µM. In addition, the TGI in assay [1], in assay [2], in assay [3], in [5], in assay [7] and in [8] was more than 100 µM in each case. The TGI in assay [9] was more than 26.9 µM; in assay [10], more than 100 µM.
With `COc1cc2cc(NCc3cccc(Cl)c3)nc(C)c2cc1OC`, the GI50 in [1] was 0.498 µM; in [2], 2.62 µM; in assay [3], 1.7 µM; in [4], 1.62 µM; in assay [5], 2.46 µM; in assay [6] it was 2.95 µM. The GI50 in assay [7] is 1.83 µM; in assay [8], 1.93 µM; in assay [9] it was 0.52 µM; in [10] it was 0.462 µM. Also, the TGI in [1] came out at 5.41 µM; in [2], 15.8 µM; in assay [3], 20.4 µM; in assay [4], 9.3 µM; in [5], 23.1 µM; in assay [6], 55.9 µM. The TGI in [7] was determined as 25.4 µM; in assay [8] it was 12.6 µM; in assay [9] it was 10.1 µM; in assay [10], 11.4 µM.
On to `C/C(=N/NC(=O)c1ccccc1S(N)(=O)=O)C(CN1CCCCC1)C(C1=C(O)C2C=CC=CC2OC1=O)c1ccccc1` (stereo unspecified), for which the TGI in assay [1] was more than 100 µM; in assay [2] it was more than 100 µM; in assay [3], more than 100 µM; in [4], 41.3 µM; in [5], more than 100 µM; in assay [6] it was 53.3 µM. Besides, the TGI in assay [7], in assay [8], in [9] and in [10] was more than 100 µM each time.
Take `O=C1NC(=O)C(c2c[nH]c3ccccc23)=C1c1c[nH]c2ccccc12`: the GI50 in assay [1] is 12.1 µM; in [2], 9.3 µM; in assay [3], more than 19.1 µM; in assay [4], 9.18 µM; in assay [5], 9.25 µM; in [6], 11.1 µM. For the same compound, the GI50 was 10.9 µM in [7], 13.3 µM in assay [8], 10.9 µM in assay [9] and 11.2 µM in [10]. Further, the TGI in [1], in assay [2], in assay [3], in assay [4], in [5] and in assay [6] was more than 25 µM throughout. In addition, the TGI in [7], in [8], in assay [9] and in assay [10] was more than 25 µM each time.
Turning to `Cc1cc(I)cc(CNCCN(C)C)c1O`, the GI50 is 19.7 µM in [1]; more than 100 µM in [2]; more than 92.2 µM in assay [3]; more than 100 µM in assay [4]; more than 79.6 µM in assay [5]; 57.8 µM in assay [6]. Besides, the GI50 in assay [7] was more than 93.1 µM; in assay [8] it was more than 100 µM; in assay [9], 33.9 µM; in assay [10] it was 35.2 µM. Besides, the TGI was 39.2 µM in assay [1]; more than 100 µM in [2]; more than 100 µM in assay [3]; more than 100 µM in assay [4]; more than 100 µM in assay [5]; more than 100 µM in [6]. In addition, the TGI in assay [7], in assay [8], in [9] and in [10] was more than 100 µM each time.
Consider `COc1cccc2c1nc(C(F)F)n2-c1nc(-c2ccc(NS(=O)(=O)CCN(C)C)cc2)nc(N2CCOCC2)n1`, for which the GI50 is 0.134 µM in assay [1]; 0.275 µM in assay [2]; 0.231 µM in assay [3]; 0.0908 µM in assay [4]; 0.115 µM in assay [5]; 0.0397 µM in [6]. Moreover, the GI50 in assay [7] is 0.138 µM; in [8], 0.341 µM; in assay [9] it was 0.243 µM; in assay [10], 0.0999 µM. The TGI in [1] was 1.45 µM; in [2], 12.8 µM; in assay [3], 2.76 µM; in [4], 2.64 µM; in assay [5], 11.2 µM; in assay [6] it was 10.2 µM. Also, the TGI in assay [7] was 2.58 µM; in [8], 6.78 µM; in [9], more than 100 µM; in assay [10], 4.39 µM.
For the compound `COc1ccc2c(c1)[C@@H](NC(C)=O)CCc1cc(OC)c(OC)c(OC)c1-2`, the TGI in [1] was more than 26.8 µM; in [2] it was 0.039 µM; in [3] it was more than 100 µM; in assay [4] it was 0.02 µM; in assay [5], more than 100 µM; in assay [6], less than 0.0142 µM. The TGI was more than 100 µM in [7], more than 100 µM in assay [8], more than 22.6 µM in [9] and 0.124 µM in assay [10].
On to `C=CC1(C)CCC2C(=CCC3C2(C)CC(O)C(O)C3(C)COC2OC(CO)C(O)C(O)C2O)C1` (stereo unspecified), for which the TGI in assay [1], in assay [2], in [3], in assay [4], in assay [5] and in [6] was more than 100 µM in each case. The TGI in [7], in assay [8], in assay [9] and in assay [10] was more than 100 µM in each case.
Turning to `CN1CCN(Cc2ccc(NC(=O)c3cncc(C#Cc4cnc(N)c5ncccc45)c3)cc2C(F)(F)F)CC1`, the GI50 in [1] was 0.341 µM; in assay [2] it was less than 0.0146 µM; in assay [3], 1.12 µM; in [4], 0.231 µM; in [5] it was 0.177 µM; in assay [6], 0.0768 µM. In addition, the GI50 is 0.1 µM in assay [7], 0.247 µM in [8], 0.0698 µM in assay [9] and 0.157 µM in assay [10]. The TGI in assay [1] was determined as 1.93 µM; in assay [2] it was 4.03 µM; in assay [3], 2.52 µM; in assay [4], 1.66 µM; in assay [5], 1.12 µM; in assay [6], 0.602 µM. Moreover, the TGI in assay [7] came out at 1.29 µM; in assay [8] it was 1.36 µM; in [9] it was 1.14 µM; in assay [10] it was 1.48 µM.
`Cc1c(Cl)cccc1C(=O)Nc1nc2c(s1)CN(C(=O)Nc1cccc(C(F)(F)F)c1)CC2`: the GI50 is 0.366 µM in assay [1]; 0.174 µM in [2]; 0.254 µM in [3]; 0.174 µM in assay [4]; 0.326 µM in assay [5]; 0.149 µM in assay [6]. Further, the GI50 was 1.45 µM in assay [7], 0.175 µM in assay [8], 0.167 µM in assay [9] and 0.173 µM in assay [10]. Further, the TGI in assay [1] is more than 50 µM; in assay [2] it was more than 21.7 µM; in assay [3] it was more than 25.3 µM; in [4], 4.36 µM; in assay [7], more than 50 µM; in [8] it was more than 50 µM. The TGI in assay [9] is more than 50 µM; in assay [10], more than 23.3 µM.
Consider `CC(=O)N1C/C(=C\c2ccccc2)C(=O)/C(=C/c2ccccc2)C1`, for which the TGI in assay [1] was found to be 34.2 µM; in [2] it was 12.1 µM; in [3], 30.2 µM; in assay [4] it was 33.9 µM; in [5], 32.4 µM; in [6], 4.06 µM. The TGI in [7] stood at 33.2 µM; in assay [8], 8.37 µM; in [9] it was 17.9 µM; in assay [10], 13.8 µM.
With `N#CC(C(=O)CCCC(=O)Nc1ccccc1[N+](=O)[O-])c1c(Cl)cccc1Cl` (stereo unspecified), the TGI in [1], in [2], in [3], in [4], in assay [5] and in assay [6] was more than 100 µM each time. The TGI in assay [7], in [8], in assay [9] and in assay [10] was more than 100 µM throughout.
Regarding `C[C@@H]1C(=O)CC2C(C)(C)CCC[C@]2(C)[C@@]12CC[C@]1(C=COC1)O2` (stereo partly specified), the TGI in assay [1] was more than 100 µM; in assay [2], more than 100 µM; in assay [3], more than 100 µM; in [4], more than 100 µM; in [5] it was more than 100 µM; in assay [6], 42.3 µM. In addition, the TGI in assay [7], in assay [8], in assay [9] and in assay [10] was more than 100 µM each time.
In the case of `C[N+]1([O-])C2CCC1CC(OC(=O)C(CO)c1ccccc1)C2` (stereo unspecified), the TGI in [1], in assay [2], in [3], in [4], in assay [5] and in [6] was more than 100 µM throughout. The TGI in assay [7], in [8], in assay [9] and in [10] was more than 100 µM throughout.
For the compound `CN(C)CC1CC/C(=C\c2ccc(Cl)c(Cl)c2)C1=O` (stereo unspecified), the TGI in assay [1] was 31.5 µM; in assay [2] it was 35.7 µM; in [3] it was 26.7 µM; in assay [4] it was more than 51.8 µM; in assay [5], more than 62.5 µM; in assay [6] it was 4.68 µM. For the same compound, the TGI in assay [7] is 58.2 µM; in [8], more than 51.6 µM; in [9] it was 48.5 µM; in [10] it was 54.4 µM.
`O=C(/C=C\c1ccc(O)c(O)c1)c1ccccc1O`: the GI50 in [1] was 12.1 µM; in assay [2], 11.8 µM; in [3], 10.6 µM; in assay [4] it was 8.99 µM; in [5] it was 8.31 µM; in assay [6], 2.4 µM. Moreover, the GI50 in assay [7] is 8.73 µM; in assay [8] it was 11.3 µM; in assay [9] it was 12.9 µM; in assay [10], 18.4 µM. In addition, the TGI stood at 26.1 µM in assay [1]; 27.6 µM in assay [2]; 23.3 µM in assay [3]; 21.6 µM in assay [4]; 24 µM in [5]; 6.05 µM in assay [6]. Further, the TGI in assay [7] was 98.7 µM; in assay [8], 26.4 µM; in [9], 29.9 µM; in [10], 47.1 µM.
On to `O=C([CH-]C(=O)c1ccccc1)c1ccccc1.O=C([CH-]C(=O)c1ccccc1)c1ccccc1.O=C([CH-]C(=O)c1ccccc1)c1ccccc1.[Ga+3]`, for which the GI50 in assay [1] was 32.7 µM; in assay [2], 91.5 µM; in assay [3], more than 100 µM; in assay [4] it was more than 100 µM; in [5], 59 µM; in assay [6], 20.5 µM. In addition, the GI50 in [7] was 64.7 µM; in [8] it was 65.1 µM; in [9], 37.6 µM; in [10], 88.8 µM. Besides, the TGI in assay [1], in assay [2], in [3], in [4], in assay [5] and in assay [6] was more than 100 µM in each case. For the same compound, the TGI in [7], in [8], in assay [9] and in assay [10] was more than 100 µM each time.
Regarding `Cc1c(C(Cc2ccccc2N(C)C(=O)/C=C\C(=O)O)c2c[nH]c3ccccc23)c2ccccc2n1C` (stereo unspecified), the TGI in [1] was found to be 34.1 µM; in [2] it was 29.1 µM; in assay [3] it was 35.9 µM; in assay [4], 29.6 µM; in assay [5] it was 34.3 µM; in [6], 23.9 µM. In addition, the TGI in [7] worked out at 55.5 µM; in assay [8], 34.5 µM; in assay [9], 39.5 µM; in assay [10], 30.8 µM.
